Measured values from patent EP0222996A2, “3-Amino-dihydro(1)benzopyrane and benzothiopyrane” (CIBA-GEIGY AG, priority 1985, dated 1987).
Structures can show the parent of a compound that is named as a salt. Where two headings read alike, the source gives them in different places.

Target: T1, Serotonin-(S-1A) (Rattus norvegicus, UniProt P19327)
T1 construct: Suspensionen aus Membranmaterial von Rattenhirn; from tissue; host or cells: rat brain membranes
T1 sequence (P19327 1-422): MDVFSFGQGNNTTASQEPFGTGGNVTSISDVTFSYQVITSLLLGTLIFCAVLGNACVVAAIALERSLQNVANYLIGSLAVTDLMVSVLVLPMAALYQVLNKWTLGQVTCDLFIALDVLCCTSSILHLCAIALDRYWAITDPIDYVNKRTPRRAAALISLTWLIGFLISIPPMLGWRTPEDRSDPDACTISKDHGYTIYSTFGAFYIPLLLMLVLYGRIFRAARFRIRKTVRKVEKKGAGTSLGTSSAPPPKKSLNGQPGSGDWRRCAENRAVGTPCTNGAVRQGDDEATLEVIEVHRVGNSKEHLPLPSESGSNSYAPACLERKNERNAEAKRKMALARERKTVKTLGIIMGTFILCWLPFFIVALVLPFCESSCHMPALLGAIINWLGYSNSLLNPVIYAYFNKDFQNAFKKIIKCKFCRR
Test: 3H-serotonin binding assay on rat brain membrane suspensions
Design: species or system Ratten
From the text: Die Serotonin-(S-1A)-Aufnahme, welche für Regulatoren mit Rezeptor-eigenschaften bei Serotonin-Agonisten indiziert ist, kann in-vitro wie folgt in einem Bindungsassay nachgewiesen werden: • Man stellt Suspensionen aus Membranmaterial von Rattenhirn her und inkubiert diese mit ^3H-Serotonin gemäss der Vorschrift von Martin und Sanders-Bush, Naunyn-Schmiederberg Arch. Pharmacol. 321, 165 (1982) und Middlemiss und Fozard Eur. J. Pharmacol., 90, 151 (1983).
In diesem Bindungsassay werden aliquote Teile von […] Zellsuspensionen zu abgepufferten ^3H-Serotonin-Lösungen mit und ohne Wirkstoff gegeben. Die Konzentration an ^3H-Serotonin ist 2 nM und man wertet die zu testenden Wirkstoffe über einen weiten Konzentrationsbereich aus. Die IC50-Werte (Konzentrationen an Wirkstoff, welche zur Hemmung von 50 % 2 nM ^3H-Serotonin nötig sind) werden graphisch bestimmt.

Row | SMILES | IC50 (concentration needed to inhibit 50 % of 2 nM 3H-Serotonin, rat brain membranes, determined graphically, read-out: IC50-Werte) [nM] | IC50 [nM]
1 | CCCN(CCC)C1CSc2cccc(OCC)c2C1 (centres unmarked) [3,4-Dihydro-N,N-dipropyl-5-ethoxy-2H-[1]-benzothiopyran-3-amin-hydrochlorid] | ~21 | –
2 | CCCN(CCC)C1COc2cccc(OCC)c2C1 (centres unmarked) [5-Aethoxy-N,N-dipropyl-3,4-dihydro-2H-[1]-benzopyran-3-amin-hydrochlorid] | – | ~40
